Data reported in ChEMBL document CHEMBL4483862, “Open-source discovery of chemical leads for next-generation chemoprotective antimalarials” (2018).

Tested on: Plasmodium berghei
Test: Luciferase/luciferin-expressing antifolate-resistant parasites were used to infect a culture of HepG2 cells that were pre-incubated with compounds. Infected hepatocytes emit light due to the luciferase reaction. Assay results are presented as the percent inhibition of light emission compared to control. […]
Assay type: functional
Settings: sporozoite; for IC90: read-out: LUCIFERASE INFECTION ASSAY - IC90
[1] = read-out: LUCIFERASE INFECTION ASSAY - IC50

SMILES | IC90 [µM] | other results
O=C(Nc1cccc(C(F)(F)F)c1)Nc1ccc2c(c1)no[n+]2[O-] | 1.2 | IC50 (HEPG2TOX_HILL_SLOPE 9.23, HEPG2TOX_R_SQUARED 0.804, PBLUC_HILL_SLOPE 15.5, PBLUC_R_SQUARED 0.688, read-out: LUCIFERASE INFECTION ASSAY - IC50): 1.04 µM
Cc1cc(C)c(NC(=NCc2ccc(Cl)cc2)Nc2c(C)cc(C)cc2C)c(C)c1 | > 10 | IC50 (PBLUC_HILL_SLOPE 2.28, PBLUC_R_SQUARED 0.76, read-out: LUCIFERASE INFECTION ASSAY - IC50): 5.92 µM
Cc1ccc(C(=O)NCc2ccc(-c3ccc(Cl)cc3)o2)cc1NC(=O)c1ccco1 | > 10 | IC50 [1]: > 10 µM
CC(=O)Nc1ccc(S(=O)(=O)N(C)CC(=O)NCCC(=O)N2CCCC2)cc1 | > 10 | IC50 [1]: > 10 µM
CNC(=O)c1ccc(CN(Cc2ccco2)C(=O)Cc2ccc(-c3ccccc3)cc2)cc1 | > 10 | IC50 (FFLUC_HILL_SLOPE 7.09, FFLUC_R_SQUARED 0.0104, PBLUC_HILL_SLOPE 1.93, PBLUC_R_SQUARED 0.808, read-out: LUCIFERASE INFECTION ASSAY - IC50): 3.68 µM
CCCCNC(=O)c1c(NC(=O)C(CC)c2ccccc2)nc2ccc(C)cn12 (centres undefined) | > 8.41 | IC50 (FFLUC_HILL_SLOPE 12.5, FFLUC_R_SQUARED 0.645, PBLUC_HILL_SLOPE 0.242, PBLUC_R_SQUARED 0.0523, read-out: LUCIFERASE INFECTION ASSAY - IC50): > 8.41 µM
COc1ccc(S(=O)(=O)NN(C)c2nc(C(F)(F)F)nc3ccccc23)cc1 | 7.15 | IC50 (HEPG2TOX_HILL_SLOPE 2.85, HEPG2TOX_R_SQUARED 0.931, PBLUC_HILL_SLOPE 2.16, PBLUC_R_SQUARED 0.738, read-out: LUCIFERASE INFECTION ASSAY - IC50): 2.59 µM
COc1ccc(C(C)(C)C)cc1NC(=O)COC(=O)c1c(-c2ccccc2)csc1NC(=O)C=C(C)C | 8.12 | IC50 (FFLUC_HILL_SLOPE 1.58, FFLUC_R_SQUARED 0.454, PBLUC_HILL_SLOPE 2.65, PBLUC_R_SQUARED 0.35, read-out: LUCIFERASE INFECTION ASSAY - IC50): 3.55 µM
CC(C)(C)c1ccc(C(=N)NOC(=O)c2sccc2Cl)cc1 | 2.4 | IC50 (FFLUC_HILL_SLOPE 2.56, FFLUC_R_SQUARED 0.405, HEPG2TOX_HILL_SLOPE 0.0994, HEPG2TOX_R_SQUARED 0.101, PBLUC_HILL_SLOPE 0.809, PBLUC_R_SQUARED 0.834, read-out: LUCIFERASE INFECTION ASSAY - IC50): 0.159 µM
O=C(Cc1ccc(-c2ccccc2)cc1)Nc1nc(-c2ccccn2)cs1 | > 10 | IC50 (PBLUC_HILL_SLOPE 13.5, PBLUC_R_SQUARED 0.18, read-out: LUCIFERASE INFECTION ASSAY - IC50): 9.2 µM
CC1(C)Cc2c(C#N)c(Nc3ccccc3)nc(NCCCO)c2CO1 | > 9.36 | IC50 [1]: > 9.36 µM
CC1=NN(c2ccccc2)C(=O)/C1=C\c1cc(C)n(-c2cc(C(F)(F)F)ccc2Cl)c1C | > 10 | IC50 (FFLUC_HILL_SLOPE 2.69, FFLUC_R_SQUARED 0.551, PBLUC_HILL_SLOPE 5.7, PBLUC_R_SQUARED 0.538, read-out: LUCIFERASE INFECTION ASSAY - IC50): 7.1 µM
COC(=O)c1c(C)[nH]c(-c2nc(Nc3cccc(OC)c3)sc2C)c1C | > 10 | IC50 (PBLUC_HILL_SLOPE 3.29, PBLUC_R_SQUARED 0.0567, read-out: LUCIFERASE INFECTION ASSAY - IC50): 7.6 µM
C=CCN(C(=O)c1sc2nc3n(c(=O)c2c1C)CCCCC3)c1nc2c(s1)CCCC2 | > 10 | IC50 (PBLUC_HILL_SLOPE 1.42, PBLUC_R_SQUARED 0.275, read-out: LUCIFERASE INFECTION ASSAY - IC50): > 10 µM
O=C(CSCc1cn(-c2ccccc2)nc1-c1ccccc1)NC1CCCC1 | > 10 | IC50 (PBLUC_HILL_SLOPE 4.68, PBLUC_R_SQUARED 0.205, read-out: LUCIFERASE INFECTION ASSAY - IC50): 6.9 µM
O=C1C=C(c2ccc(Cl)cc2)C(=O)N1Nc1ccc(F)cc1 | > 10.4 | IC50 (HEPG2TOX_HILL_SLOPE 7.85, HEPG2TOX_R_SQUARED 0.837, PBLUC_HILL_SLOPE 13.2, PBLUC_R_SQUARED 0.145, read-out: LUCIFERASE INFECTION ASSAY - IC50): 10.2 µM

SMILES | IC90 [µM] | other results
CC1CCN(CCOc2ccc(-c3n[nH]cc3-c3ccccc3)c(O)c2)CC1 | > 8.74 | IC50 (PBLUC_HILL_SLOPE 1.57, PBLUC_R_SQUARED 0.734, read-out: LUCIFERASE INFECTION ASSAY - IC50): > 8.74 µM
Cc1ccc(F)cc1NS(=O)(=O)c1ccc(-n2ncc(Cl)c(Cl)c2=O)cc1 | 6.47 | IC50 (HEPG2TOX_HILL_SLOPE 2.56, 7.18, HEPG2TOX_R_SQUARED 0.970, 0.512, PBLUC_HILL_SLOPE 2.23, 0.224, PBLUC_R_SQUARED 0.767, 0.129, read-out: LUCIFERASE INFECTION ASSAY - IC50): 2.08 µM
C/C(=N\NC(=S)NC(C)(C)C)c1cc(Cl)cc(Cl)c1O | > 9.87 | IC50 (FFLUC_HILL_SLOPE 16.6, FFLUC_R_SQUARED 0.277, read-out: LUCIFERASE INFECTION ASSAY - IC50): > 9.87 µM
CCCCCCCCCCCCSC(=S)c1c(C)[nH]n(-c2ccccc2)c1=O | > 7.88 | IC50 [1]: > 7.88 µM
COc1ccc2c(c1)/C(=N/NC(=O)c1ccc(CSc3ccc(Cl)cc3)cc1)C(=O)N2 | > 10 | IC50 (FFLUC_HILL_SLOPE 11.4, FFLUC_R_SQUARED 0.124, PBLUC_HILL_SLOPE 3.43, PBLUC_R_SQUARED 0.087, read-out: LUCIFERASE INFECTION ASSAY - IC50): 6.03 µM
Cc1ccsc1/C=N/Nc1nc2ccccc2nc1C(F)(F)F | 9.51 | IC50 (HEPG2TOX_HILL_SLOPE 2.86, HEPG2TOX_R_SQUARED 0.79, PBLUC_HILL_SLOPE 19.7, PBLUC_R_SQUARED 0.0461, read-out: LUCIFERASE INFECTION ASSAY - IC50): 8.5 µM
CCOC(=O)c1c(C)[nH]c(-c2csc(/C(C#N)=C/c3ccc[nH]3)n2)c1C | > 10 | IC50 (FFLUC_HILL_SLOPE 1.13, FFLUC_R_SQUARED 0.248, HEPG2TOX_HILL_SLOPE 11.9, HEPG2TOX_R_SQUARED 0.816, PBLUC_HILL_SLOPE 50.7, PBLUC_R_SQUARED 0.357, read-out: LUCIFERASE INFECTION ASSAY - IC50): 9.63 µM
FC(F)(F)c1ccc(/C=N/Nc2ccc(C(F)(F)F)cc2)cc1 | > 9.93 | IC50 (PBLUC_HILL_SLOPE 3.36, PBLUC_R_SQUARED 0.386, read-out: LUCIFERASE INFECTION ASSAY - IC50): 5.72 µM
COc1ccc(OCC[N+](C)(Cc2csc(Nc3ccccc3)n2)Cc2csc(Nc3ccccc3)n2)cc1 | 7.93 | IC50 (HEPG2TOX_HILL_SLOPE 7.97, HEPG2TOX_R_SQUARED 0.988, PBLUC_HILL_SLOPE 3.3, PBLUC_R_SQUARED 0.694, read-out: LUCIFERASE INFECTION ASSAY - IC50): 4.08 µM
COc1cc(-c2cc3c(cn2)nc(NCc2cccc(C)c2)n3C)cc(OC)c1OC | > 10 | IC50 [1]: 8.23 µM
CCCCNC(=O)N1CCC(C(=O)c2c(C)c(C)c(C)c(C)c2C)CC1 | > 9.2 | IC50 [1]: > 9.2 µM
CC(C)(C)c1ccc(C(=O)Nc2ccc(Oc3cccnc3)nc2)cc1 | > 9.5 | IC50 (HEPG2TOX_HILL_SLOPE 1.03, HEPG2TOX_R_SQUARED 0.91, PBLUC_HILL_SLOPE 1.13, PBLUC_R_SQUARED 0.427, read-out: LUCIFERASE INFECTION ASSAY - IC50): 3.06 µM
CCOc1cccc2cc(C(C)Nc3ncnc4n[nH]cc34)oc12 (centres undefined) | 6.49 | IC50 (HEPG2TOX_HILL_SLOPE 1.82, HEPG2TOX_R_SQUARED 0.969, PBLUC_HILL_SLOPE 2.94, PBLUC_R_SQUARED 0.376, read-out: LUCIFERASE INFECTION ASSAY - IC50): 3.07 µM
Cc1ccc2[nH]c(-c3cccs3)c(CCC(=O)N(C)C3CCS(=O)(=O)C3)c2c1 (centres undefined) | 3.85 | IC50 (PBLUC_HILL_SLOPE 12.5, PBLUC_R_SQUARED 0.681, read-out: LUCIFERASE INFECTION ASSAY - IC50): 3.23 µM
CC(=O)N(C)c1cccc(-c2cc3c(Nc4cccc(C(C)C)c4)nccc3n2C)c1 | 3.76 | IC50 (PBLUC_HILL_SLOPE 18.8, PBLUC_R_SQUARED 0.545, read-out: LUCIFERASE INFECTION ASSAY - IC50): 3.34 µM
COc1ccc(C(NC(=O)c2ccc(-n3cccc3)cc2)c2nccn2C)cc1 (centres undefined) | > 10 | IC50 [1]: > 10 µM
